According to patent US12576070B2, “Medicine for improving state of pregnancy, and use thereof” (priority 2014, dated 2026):
Entries after “also recorded” stand apart in the source; their conditions may differ.

Experiments:
[1] = system: repeated implantation failure (RIF) patients with elevated Th1/Th2 cell ratios; experiment: Tacrolimus treatment of repeated implantation failure (RIF) patients during IVF/ET, prospective cohort study (Example 1); assay type: in vivo, human
Protocol: This was a prospective cohort study of treatment for RIF patients (n=42) with elevated peripheral blood Th1 (CD4^+/IFN-γ^+)/Th2 (CD4^+/IL-4^+) cell ratios at the Sugiyama clinic between November 2011 and October 2013. Twenty-five patients were treated with tacrolimus (treatment group) and 17 received no treatment (control group).
Treatment group continuously received tacrolimus from two days before embryo transfer until the day of the pregnancy test, for a total of 16 days. The daily dose of tacrolimus (1-3 mg) was determined based on the degree of the Th1/Th2 cell ratio.
A total of 81 patients with a history of 5 or more RIF after IVF/ET cycles were consecutively enrolled in the study at the division of Reproductive Medicine, the Sugiyama clinic, Tokyo, Japan, between November 2011 and February 2014. This study was approved by the Institutional Review Board of the Sugiyama Clinic. A signed informed consent form was obtained from all patients prior to entering the study.
Study patients were assessed by transvaginal ultrasound, hysterosalpingography, and hysteroscopy before the index ART cycle. None of the participants had submucosal fibroids, endometrial polyps, intrauterine adhesions, congenital anomalies of uterus or hydrosalpinges. In addition, none of the women had any history of autoimmune disease. Pregnant women or women with chronic medical or inflammatory conditions were excluded. Women who miscarried in a former IVF cycle or had IVF cycles, or received vaccination in 3 months were excluded in the study. Women with acquired or inherited thrombophilia were also excluded in this study.
Blood was drawn between cycle day (CD) 5 and 10 prior to the index ART cycle for the evaluation of a baseline value of Th1/Th2 cell ratios. Forty-two patients had elevated Th1/Th2 cell ratio (≥10.3) and 39 had normal Th1/Th2 cell ratio (≤10.3). […] Blood was drawn between CD5 and CD10 of the menstrual cycle. A Th1/Th2 cell ratio equal to 10.3 or above was classified as an elevated Th1/Th2 cell ratio, which was determined by the mean plus one standard deviation of Th1/Th2 cell ratio levels.
For the evaluation of a baseline value of Th1/Th2 cell ratios, total 10 ml of venous blood was obtained. Th1 and Th2 cells were determined by detecting the intracellular interferon (IFN)-γ and IL-4 production.
The specific staining of lymphocytes was performed by incubating whole blood with anti-CD4-PC5 or anti-CD8-PC5-conjugated monoclonal antibodies (mAbs) (Beckman Coulter, Fullerton, Calif, USA). The red blood cells (RBCS) were then removed by lysis (FACS Lysing solution; Becton Dickinson, BD Biosciences, Franklin Lake. N.J., USA) and the lymphocytes were analyzed using flow cytometry (FACSCalibur; Becton Dickson). After surface staining of the activated whole blood samples with anti-CD4-PC5 conjugated mAbs, RBC lysis and specific intracellular staining using FASTIMMUNE™ IFN-γ-FITC/IL-4-PE (Becton Dickinson) were subsequently performed according to the manufacturer's instructions. Th1 cells were defined as CD4^+ lymphocytes with intracellular IFN-γ but without IL-4. Th2 cells were detected as CD4^+ lymphocytes with intracellular IL-4 but without IFN-γ. The ratio of IFN-γ to IL-4 positive Th cells was expressed as the Th1/Th2 cell ratio.
In 42 patients with elevated Th1/Th2 cytokine ratios (equal or above 10.3), 25 of them were treated with tacrolimus (PROGRAF®, Astellas Pharma, Tokyo; treatment group), and the others (n=17) were not treated (control group) during the index IVF/ET cycles. The patients in the treatment group began tacrolimus two days prior to ET and continued until the day of pregnancy test, for a total of 16 days. […]

[2] = system: infertilitas patients with three or more consecutive miscarriages, stillbirths, or intrauterine fetal growth retardations; experiment: Tacrolimus treatment of infertilitas patients from establishment of pregnancy until delivery (Example 2); assay type: in vivo, human
Protocol: These patients were a group of patients for whom clear findings of abnormality related to infertility were not recognized with a serological examination that had been performed in advance.
The patients were evaluated through a transvaginal ultrasound examination, a Fallopian tube patency test, and hysteroscopy before an index ART cycle. Among the participants, no one had submucosal myoma, endometrial polyps, intrauterine adhesion, congenital abnormalities in the uterus, or hydrosalpinx. […] Any women who had experienced miscarriage in the previous IVF cycle, who had received an IVF cycle, or who had received vaccination, all within three months, were excluded from the subjects. Any women with acquired or congenital thrombophilia were excluded from the subjects.
The analysis was carried out according to the method described in Example 1. However, the determination of the Th1/Th2 cell ratio in a patient was carried out immediately after establishment of pregnancy (the day of confirming establishment of pregnancy). The level of the Th1/Th2 cell ratio was determined according to the average value+1 standard deviation method in the same manner as in Example 1, and a Th1/Th2 cell ratio that was equal to 10.3 or higher than that was classified as an increased Th1/Th2 cell ratio.
All of the eleven patients were subjected to treatment with tacrolimus in the same manner as in Example 1, except for the duration of administration. […] The duration of administration of tacrolimus was from the time point immediately after establishment of pregnancy was confirmed by a pregnancy test and the Th1/Th2 cell ratio was checked, until the day of delivery, in all cases.
The treatment was carried out in the same manner as in Example 1.
The analysis was carried out in the same manner as in Example 1.

[3] = 1 mg daily, n = 12, Th1/Th2 cell ratio ≥10.3 and <13.0
[4] = 2 mg daily, n = 8, Th1/Th2 cell ratio ≥13.0 and <15.8
[5] = 3 mg daily, n = 5, Th1/Th2 cell ratio ≥15.8
[6] = treatment group n = 25, tacrolimus 1-3 mg daily for 16 days
[7] = treatment group, 15 newborns, mean ± standard deviation
[8] = treatment group, 15 newborns, mean ± standard deviation, listed as tacrorimus
[9] = infertilitas patients n = 11, tacrolimus 1-3 mg per day from confirmation of pregnancy until delivery

Compound: C=CCC1/C=C(\C)CC(C)CC(OC)C2OC(O)(C(=O)C(=O)N3CCCCC3C(=O)OC(/C(C)=C/C3CCC(O)C(OC)C3)C(C)C(O)CC1=O)C(C)CC2OC (stereo not shown) [tacrolimus, 17-Allyl-1,14-dihydroxy-12-[2-(4-hydroxy-3-methoxycyclohexyl)-1-methylvinyl]-23,2 5-dimethoxy-13,19,21,27-tetramethyl-11,28-dioxa-4-azatricyclo[22.3.1.04,9]octacos-18-ene-2,3,10,16-tetraone]
- Clinical pregnancy with 1 mg of tacrolimus (%) [1, 3]: 83.3%
- Live birth with 1 mg of tacrolimus (%) [1, 3]: 83.3%
- Clinical pregnancy With 2 mg of tacrolimus [1, 4]: 50.0%
- Live birth With 2 mg of tacrolimus [1, 4]: 37.5%
- Clinical pregnancy with 3 mg of tacrolimus [1, 5]: 40.0%
- Live birth with 3 mg of tacrolimus [1, 5]: 40.0%
- FET success rate relative to reported success rate (39%) of women under 35 ([1]; FET cycle with tacrolimus, 75% versus 2011 CDC report 39%): 1.9 times
- Positive hCG (%) ([1]; RIF patients with elevated Th1/Th2 cell ratio, treatment group n = 25, tacrolimus 1-3 mg daily for 16 days from two days before ET): 64%
- birth weight (mean±SD) ([1]; newborns of the treatment group, as given in the text): 2,995±400 g
- Spontaneous abortion rate (%) ([1]; pregnant patients of the treatment group, one miscarriage at 10 weeks gestation): 6.3%
- Side effect from tacrolimus ([1]; treatment group n = 25, 1-3 mg daily for 16 days): no significant side effect; also recorded: no one reported side effect
- Clinical pregnancy rate per ET (%) [1, 6]: 64.0%
- Live birth rate (%) [1, 6]: 60%
- Implantation rate (%) ([1]; treatment group n = 25, tacrolimus 1-3 mg daily for 16 days from two days before ET, 16/35): 45.7%
- APGAR score at 1 minutes after birth [1, 7]: 8.3±0.5
- APGAR score at 5 minutes after birth [1, 7]: 9.2±0.5
- Gestational days to delivery [1, 7]: 279.5 ± 10.6 days
- Umbilical cord gas analysis (pH) [1, 7]: 7.2 ± 0.05 pH
- Birth weight (gm) ([1]; treatment group, 15 newborns, mean ± standard deviation (Table 4)): 3,021 ± 371 gm
- APGAR score at 1 minutes after birth [1, 8]: 8.3 ± 0.5
- APGAR score at 5 minutes after birth [1, 8]: 9.2 ± 0.6
- Gestational days to delivery [1, 8]: 279.5 ± 10.6 days
- Live birth rate of fresh ET (%) ([1]; treatment group, fresh ET (n = 9)): 33.3%
- Clinical pregnancy of fresh ET (%) ([1]; treatment group, fresh ET (n = 9), tacrolimus 1-3 mg daily for 16 days): 44.4%
- Live birth rate of thawed ET (%) ([1]; treatment group, frozen-thawed ET (n = 16)): 75%
- Clinical pregnancy of cryo-thaw ET (%) ([1]; treatment group, frozen-thawed ET (n = 16), tacrolimus 1-3 mg daily for 16 days): 75%
- Number of newborns ([1]; women with multiple implantation failures (5 or more) treated with tacrolimus): 15
- APGAR Score 1 minute ([2]; Full term birth (8 babies)): 8.0 ± 1.0
- APGAR Score 5 minute ([2]; Full term birth (8 babies)): 9.0 ± 0.5
- Birth weight (gm) ([2]; Full term birth (8 babies)): 3149 ± 234 gm
- Complications of mother ([2]; Full term birth (8 babies)): 0
- Complications of newborn baby ([2]; Full term birth (8 babies)): 0
- Number of gestational days ([2]; Full term birth (8 babies)): 279.3 ± 6.0 days
- Umbilical cord blood pH ([2]; Full term birth (8 babies)): 7.3 ± 0.12
- APGAR Score 1 minute ([2]; Premature birth case): 6
- APGAR Score 5 minute ([2]; Premature birth case): 8
- Birth weight (gm) ([2]; Premature birth case): 748 gm
- Number of gestational days ([2]; Premature birth case): 208 days
- Umbilical cord blood pH ([2]; Premature birth case): 7.304
- Complications of newborn baby ([2]; Premature birth case, Low birth weight baby): 1 (Low birth
- Complications of mother ([2]; Premature birth case, Pregnancy-induced hypertension): 1 (Pregnancy-
- Number of newborn babies (n): Miscarriage [2, 9]: 2 n
- Number of newborn babies (n): Premature birth [2, 9]: 1 n
